Data from patent US5532258A, “H2 -receptor antagonist thiazoles” (Fujisawa Pharmaceutical Co., Ltd., priority 1991, dated 1996).

Columns and labels:
Gastric secretion [1] = assay: Test C (Gastric secretion from lumen perfused stomach in anesthetized rats); type: in vivo, Male Sprague-Dawley rats; settings: 1 mg/kg intravenously, histamine (3 mg/kg/hr) i.v. stimulation
Protocol: Test C (Gastric secretion from lumen perfused stomach in anesthetized rats):
Male Sprague-Dawley rats weighing about 250 g were used. Rats were deprived of food but allowed free access to water for 24 hours. The animals were anesthteized with 1.25 g/kg urethane intraperitoneally. The abdomen was opened and the gastric lumen was perfused with saline throughout the experiment. The perfusate was titrated continuously against 25 mM sodium hydroxide to maintain the perfusate solution at pH 7.0. Gastric secretion was stimulated by intravenous infusion with histamine (3 mg/kg/hr). After reaching plateau, test compound (1 mg/kg) was given intravenously at a volume of 2 ml/kg. Effect of drug was expressed as maximal inhibition of acid output calculated by the amount of sodium hydroxide required.

Gastric secretion [2] = assay: Test A (Gastric secretion in Heidenhain pouch dogs); type: in vivo, Beagle dogs; settings: 3.2 mg/kg orally, tetragastrin (10 μg/kg/hr) i.v. stimulation, 3 hours
Protocol: Test A (Gastric secretion in Heidenhain pouch dogs):
Beagle dogs, weighing about 8-13 kg, were used for the study on gastric secretion. The animals were surgically provided with a vagally denervated Heidenhain pouch. One month or more later, the dogs were fasted overnight. Gastric secretion was stimulated by an intravenous infusion of tetragastrin (10 μg/kg/hr). Gastric juice was collected at 15 minutes intervals. After the secretion plateau had been established, test compound (3.2 mg/kg) suspended in 0.1% methyl cellulose solution was administered orally. Gastric juice was collected at 15 minutes intervals over 3 hours period. Acid concentration was determined by titrating an aliquot against 0.1N sodium hydroxide using automatic titrator (Hiranuma RAT-11 Type). Total acid output was calculated by multiplying the volume of gastric juice by acid concentration, and percentage inhibition was calculated by comparing total acid output before adminstration of test compound with that after administration of test compound.

stress ulcer = assay: Test B (Inhibition of stress ulcer); type: in vivo, male Sprague-Dawley rats; settings: rats; 32 mg/kg orally just before stress; restraint in water bath 22° C. for 7 hours; vs control group
Protocol: Test B (Inhibition of stress ulcer):
Five male Sprague-Dawley rats, aged 7 weeks, were fasted but allowed free access to water for 24 hours. Animals were placed in a restraint cage and immersed to a level of the xiphoid in a water bath kept 22° C. for 7 hours. Each of the test compounds (32 mg/kg) suspended in 0.1% methylcellulose solution was administered orally just before the stress subjection. Animals were sacrificed and stomachs were removed. After fixing with 2% formalin, stomachs were opened along the greater curvature and area of ulcers was measured. Percentage inhibition was calculated by comparing the mean area of ulcers (mm^2) in the test group with that in the control group.

NC(=O)NCc1cccc(-c2csc(N=C(N)N)n2)c1 [Test Compound (a), 4-(3-Ureidomethylphenyl)-2-(diaminomethyleneamino)thiazole]
Inhibition (%), maximal inhibition of acid output (Gastric secretion [1]): 99%

CNC(N)=Nc1nc(-c2cccc(CNC(C)=O)c2)cs1 [Test Compound (b), 4-(3-Acetylaminomethylphenyl)-2-[[(amino)(methylamino)methylene]amino]thiazole]
Inhibition (%) of total acid output (Gastric secretion [2]): 88.1%

CCNC(N)=Nc1nc(-c2cccc(CNC(C)=O)c2)cs1 [Test Compound (c), 4-(3-Acetylaminomethylphenyl)-2-[[(amino)(ethylamino)methylene]amino]thiazole]
Inhibition (%) of area of ulcers (stress ulcer): 88.1%
